Where two headings read alike, the source gives them in different places. Values belong to the molecule of their own block, whether it stands above or below them.
Tests used:
[1] = cited from earlier work
[2] = Type II diabetic obese patient switched from rosiglitazone to 6ECDCA plus rosiglitazone; format: in vivo, human; settings: rosiglitazone 8 mg daily 4 weeks then 4 mg daily 6 weeks by mouth
Protocol: The patient is started on a combination of 6ECDCA (150 mg) and rosiglitizone (2 mg) daily by mouth.

liver fibrosis = assay: Gene expression in three rat models of liver fibrosis (porcine serum, BDL, CCl4) treated with FXR ligand; format: in vivo; settings: rats, 3 mg/kg
Protocol: In order to further investigate whether in vivo administration of FXR ligands would modulate the expression of PPARγ, three different models of liver fibrosis were used, i.e., porcine serum administration, bile duct ligation (BDL), and CCL4 intoxication. Male Wistar rats (200-250 g) were obtained from Charles River Breeding Laboratories (Monza, Italy) and maintained on standard laboratory rat chow on a 12 hour light/dark cycle. […] (2004) Gastroenterology 14:1444-1356). […] At the end of the study, rats were sacrificed under anaesthesia with sodium pentobarbital (50 mg/kg, i.p.) and terminally bled via cardiac puncture. The liver was removed for examination and blood samples were taken. In the second model, hepatic fibrosis was induced by bile duct ligation (BDL) of 8-9 weeks old male Wistar rats (see Fiorucci et al. (2004) Gastroenterology 14:1444-1356 and Fiorucci et al. (2004) Hepatology 39:365-75). Sham operated rats (n=6) received the same laparoscopic procedure, except that the bile duct was manipulated, but not ligated and sectioned. A total of 24 animals were operated. […] Animals were then treated for 14 days. […] Control rats were injected i.p. with 100 μl/100 g body weight of paraffin oil alone.

[3] = system: primary cultures of rat HSCs; assay: PPARγ expression in primary cultures of rat HSCs with FXR ligands (qRT-PCR, Western blot); format: cell-based
Protocol: However, whether or not FXR interacts with PPARγ, has so far been unknown. In order to investigate if FXR interacts with PPARγ, in vitro studies were performed on primary cultures of rat HSCs and HSC-T6 (i.e., a rat immortalised HSCs line). Primary rat HSCs were isolated from control and cirrhotic rats according to techniques known in the art. […] Cells were cultured at 37° C. in an atmosphere of 5% CO2 in Dulbecco's modified minimal essential medium (Gibco BRL Life Technologies, Rockville, Md.) containing 10% fetal calf serum (FCS), 2 mM L-glutamine, and 5,000 IU/ml penicillin/[…] streptomycin. […] HSCs were incubated with or without 6-ECDCA, 1 μM, for 24 hours at 37° C. in DMEM. […] The proteins were then transferred to nitrocellulose membranes (Biorad, Hercules, Calif.) and probed with primary antibodies to FXR and PPARγ (Santa Cruz Biotechnology, Santa Cruz, Calif.).
PPARγ expression normally decreases during HSC trans-differentiation. […] To further investigate whether ligands of FXR and PPARγ might cooperate in repressing α1 (1) collagen gene expression, HSC-T6 were exposed to effective concentrations of the two ligands.

[4] = system: liver fibrosis induced by porcine serum; assay: Liver fibrosis induced by 8-week porcine serum administration to rats: 6-ECDCA, rosiglitazone and combination; format: in vivo, rat; settings: for ALP / ALT / Bilirubin / Liver/b.w.: porcine serum rats, 8 weeks, mean ± SE
Protocol: To investigate whether 6-ECDCA was effective in regulating PPARγ expression, porcine serum-administered rats (6-8 each group) were randomized to receive 1 and 3 mg/kg 6-ECDCA via gavage 5 times a week. Control rats were administered 3% carboxy-methyl cellulose (CMC) by gavage. At the end of the study, rats were sacrificed under anaesthesia with sodium pentobarbital (50 mg/kg, i.p.) and terminally bled via cardiac puncture. The liver was removed for examination and blood samples were taken.
Groups and duration of treatment are described in Table 1 below. Animals were followed for 8 weeks.
Collagen surface density was quantified using a computerized image analysis system (Image Acquisition System Ver. 005, Delta Sistemi, Rome, Italy) (see Fiorucci et al., supra). Hepatic and urinary content of hydroxyproline were determined by HPLC (LC Varian Prostar HPLC, Varian, Rome, Italy) as described in Fiorucci et al. (supra). The ANOVA followed by Dunnett or Bonferroni correction for multiple comparison were applied when appropriate during statistical analysis. EC50 were calculated using Prism III (Graphpad Software. Inc., San Diego, Calif.).

- edema [2]: signs of increasing peripheral edema
- weight gained since initiating TZD therapy [2]: 6 kg
Compound: CN(CCOc1ccc(CC2SC(=O)NC2=O)cc1)c1ccccn1 (centres unmarked) [rosiglitazone]
- incidence of edema ([1]; 4 mg/day in combination with insulin (Raskin et al. 2001)): 13.1%
- incidence of edema ([1]; 8 mg/day in combination with insulin (Raskin et al. 2001)): about 16.2%

- ALP ([4]; oral 1 mg/kg (each drug)): 26.6 ± 2.5 U/dl
- Bilirubin ([4]; oral 1 mg/kg (each drug)): 0.3 ± 0.01 mg/dL
- ALP ([4]; oral 3 mg/kg (each drug)): 21.8 ± 5.2 U/dl
- Bilirubin ([4]; oral 3 mg/kg (each drug)): 0.2 ± 0.01 mg/dL
Compound: CC[C@H]1[C@@H](O)[C@@H]2[C@H](CC[C@]3(C)[C@@H]([C@H](C)CCC(=O)O)CC[C@@H]23)[C@@]2(C)CC[C@@H](O)C[C@@H]12 [6-ECDCA]
- increase of FXR mRNA (liver fibrosis): 1.8 fold
- increase of SHP mRNA (liver fibrosis): 4 fold
- increase in PPARγ mRNA and protein ([3]; primary HSCs grown seven days, 1 μM): 40 fold
- expression of selected pro-fibrogenetic markers (α-SMA, fibronectin, TGFP1) ([4]; 1 mg/kg): reduced
- histological score and liver hydroxyproline content ([4]; 1 mg/kg, in comparison to porcine serum alone): slightly reduced
- protection against development of liver fibrosis ([4]; 3 mg/kg): effectively protected
- increase of liver PPARγ mRNA ([4]; 3 mg/kg alone): 3-4 fold
- increase of hepatic expression of UCP-2 ([4]; 3 mg/kg, P<0.05 versus control and porcine serum alone): 2-4 fold
- liver function as measured by plasma ALT, alkaline phosphatase and bilirubin ([4]; 1 and 3 mg/kg, P>0.05 versus control and porcine serum-treated rats): did not affect liver function
- ALT ([4]; oral 1 mg/kg (each drug)): 47.4 ± 2.4 U/L
- Liver/b.w. ([4]; oral 1 mg/kg (each drug)): 3.8 ± 0.3%
- ALT ([4]; oral 3 mg/kg (each drug)): 41.9 ± 5.3 U/L
- Liver/b.w. ([4]; oral 3 mg/kg (each drug)): 2.9 ± 0.2%

Compound: CC(C)c1onc(-c2c(Cl)cccc2Cl)c1COc1ccc(/C=C/c2cccc(C(=O)O)c2)c(Cl)c1 [GW4064, reference compound]
- downregulation of PPAR-γ caused by HSCs activation ([3]; primary HSCs): prevented the downregulation

Compound: CCc1ccc(CCOc2ccc(CC3SC(=O)NC3=O)cc2)nc1 (centres unmarked) [pioglitazone]
- combined incidence of edema ([1]; 15 or 30 mg/day in combination with insulin (Rubin et al. 1999)): 15.3%

— patent US20060252670A1, “Method of reducing drug-induced adverse side effects in a patient” (Intercept Pharmaceuticals Inc., priority 2004, published 2006)
